Legend:
SD rats [1] = assay: duration of the intestinal calcium absorption capacity improving effect after feeding is terminated (45Ca level in plasma); assay type: in vivo; conditions: test diet 10 days, then control diet; for 3 days after termination; relative to the control group
Description: As in Example 1, 15 g/day of a control diet and a test diet as shown in Table 1 were fed to groups of rats (8-week-old, male, SD rats), each group consisting of 8 rats, for 10 days, respectively. The rat groups fed with the test diet were divided into three groups and as the feed after 10 days, the control diet was fed to each group and feeding of the glucose 1-phosphate sodium salt was terminated. The termination period was 1 day, 3 days and 7 days. The ^45Ca level in the blood plasma after completion of the feeding period was measured in accordance with the method of Example 1.

SD rats [2] = assay: 45Ca level in blood plasma after oral 45Ca calcium chloride in rats fed the test diet for 10 days (intestinal calcium absorption capacity); assay type: in vivo; conditions: test diet (1.88 mass% in feed, 15 g/day, 10 days) vs control diet; 24 h fast; plasma 30 minutes, 1 hour and 2 hours after oral ^45Ca calcium chloride; Scheffe method, significant level less than 1%
Description: Rats (8-week-old, male, SD rats), 10 rats consisting of one group, were each fed with 15 g/day of a control diet or a glucose 1-phosphate sodium salt diet as shown in Table 1 for 10 days. As the glucose 1-phosphate sodium salt, product of Solchem (Italy) was employed and the feed was adjusted to have a calcium concentration of 0.2 mass% and a P concentration of 0.4 mass%. The rats were allowed to take distilled water ad libitum.
After the rats were fasted for 24 hours, they were orally administered with 1.5 mL (containing ^45CalµCi), per average weight, of a 1 mg/mL calcium chloride solution containing ^45Ca singly. The blood plasma was obtained from about 0.5 mL of the blood collected from their carotid artery 30 minutes, 1 hour and 2 hours after administration. The ^45Ca level in 100 µL of the blood plasma was measured by a liquid scintillation counter.
A change in the ^45Ca level in 100 µL of the blood plasma separated from the […] 30 minutes, 1 hour and 2 hours after the administration of a ^45Ca-containing calcium chloride solution was statically analyzed by the Scheffe method. […]

[3] = pH of a 2 mass% aqueous solution; assay type: physicochemical

Row | Molecule | ^45Ca level in the plasma after feeding was terminated (SD rats [1]) | ^45Ca level in the blood plasma (SD rats [2]) | pH of a 2 mass% aqueous solution [3]
1 | glucose 1-phosphate sodium salt | significant increase | statistically significant increase | about 8.0
2 | O=P(O)(O)OC1O[C@H](CO)[C@@H](O)[C@H](O)[C@H]1O (stereo partly shown) [Glucose-1-phosphoric acid, reference compound] |  |  | 1.5

Reference: patent EP1477171A1, “Intestinal mineral absorption capacity improver” (Kao Corporation, priority 2003, dated 2004)
